Here are results for seven compounds from US7893069B2, “Substituted imidazo[2,1-b]thiazole compounds and uses thereof” (Gruenenthal GmbH, priority 2006, dated 2011).

The target of one test is T1, mGluR5 receptor (pig) (Sus scrofa, UniProt I3LUI7).
T1 construct: 450 μg protein from brain homogenate is incubated with 5 nM; from tissue; host or cells: pig brain halves without medulla, cerebellum and pons; homogenate, differential centrifugation
Description: [3H]-MPEP binding assay, pig brain homogenate. The settings on record: for IC50: displacement of 5 nM [3H]-MPEP, 450 μg protein from pig brain homogenate, 60 min, room temperature, read-out: IC50 [3H]-MPEP bond mGluR5 receptor (pig). The protocol: Substituted imidazo[2,1-b]thiazole compounds corresponding to the foregoing formula I are likewise particularly preferred, which, after 60 minutes of incubation in 450 μg protein from pig brain homogenate at a temperature between 20° C. and 25° C. in a concentration of less than 2500 nM, preferably less than 1000 nM, particularly preferably less than 700 nM, very particularly preferably less than 100 nM, even more preferably less than 70 nM, bring about a 50-percent displacement of [^3H]-2-methyl-6-(3-methoxyphenyl)-ethynylpyridine which is present in a concentration of 5 nM. The determination of the displacement of [^3H]-2-methyl-6-(3-methoxyphenyl)-ethynyl-pyridine is performed as described hereinafter in the section Pharmacological Methods, I. Method for determining the inhibition of [^3H]-MPEP-bonding in the mGluR5 receptor bonding assay.
1. Method for Determining the Affinity to the mGluR5 Receptor
Pig brain homogenate is produced by homogenization (Polytron PT 3000, Kinematica AG, 10,000 rpm for 90 seconds) of pig brain halves without medulla, cerebellum and pons in buffer pH 8.0 (30 mM Hepes, Sigma, order no. H3375+1 tablet complete to 100 ml, Roche Diagnostics, order no. 1836145) in ratio 1:20 (brain weight/volume) and differential centrifugation at 900×g and 40,000×g. In each case, 450 μg protein from brain homogenate is incubated with 5 nM ^3-[H]-MPEP (Tocris, order no. R1212) (MPEP=2-methyl-6-(3-methoxyphenyl)-ethynylpyridine) in 250 μl incubation batches in 96 well microtitration plates and the compounds to be tested (10 μM in the test) in buffer (as above) at room temperature for 60 min.
Thereafter, the batches are filtered with the help of a Brandel Cell Harvester (Brandel, TYP Robotic 9600) on unifilter plates with glass fibre filter mats (Perkin Elmer, order no. 6005177) and subsequently washed with buffer (as above) 3 times with in each case 250 μl per sample. The filter plates are subsequently dried for 60 min at 55° C. 30 μL Ultima Gold™ scintillator is subsequently added per well (Packard BioScience, order no. 6013159) and the samples are measured after 3 hours on the β-counter (Mikrobeta, Perkin Elmer). The unspecific bond is determined by addition of 10 μM MPEP (Tocris, order no. 1212).

In a further test the test system is rat. The test is described as follows: Formalin test in rats (phase 2, chronic pain component). The settings on record: administered 30 min before formalin. Type of test: in vivo. The procedure:
2a. Formalin Test in Rats The formalin test (Dubuisson, D. and Dennis, S. G., 1977, Pain, 4, 161-174) represents a model for acute and chronic pain. A biphasic nociceptive reaction, which is recorded by observation of three clearly differentiable behavioural patterns, is induced by a single formalin injection into the dorsal side of a rear paw in freely mobile test animals. The reaction has two phases: Phase 1=Immediate reaction (duration up to 10 min; paw shaking, licking), Phase 2=Late reaction (after a rest phase; likewise, paw shaking, licking; duration up to 60 min). The 1st phase reflects a direct stimulation of the peripheral nocisensors with high spinal nociceptive input or glutamate release (acute pain phase); the 2nd phase reflects a spinal and peripheral hypersensitisation (chronic pain phase). In the investigations presented here, the chronic pain component (phase 2) was evaluated. Formalin with a volume of 50 μl and a concentration of 5% is administered subcutaneously into the dorsal side of the right rear paw of each animal. The substances to be tested are administered 30 min before the formalin injection orally (p.o), intravenously (i.v.) or intraperitoneally (i.p.). The specific changes in behavior such as lifting and shaking the paw, shifts in weight of the animal as well as biting and licking reactions are observed and registered in the period of observation from 21 to 27 min after formalin injection. The various forms of behavior are summarized in the so-called pain rate (PR), which, relative to the sub-intervals of 3 min, represents the calculation of an average nociception reaction. […] The group size is 10 animals (n=10). 2b. Formalin Test in Mice

A further test has as its target T2, mGluR5 receptor (human) (Homo sapiens, UniProt P41594).
T2 construct: host or cells: CHO-hmGluR5 cells (purchased cell line; incubated overnight with doxycycline)
The test is described as follows: Functional Ca2+ influx assay in CHO-hmGluR5 cells (DHPG-stimulated, FLIPR). It counts as cell-based. The settings on record: 10 μM DHPG, Ki=IC50/(1+AGConc./EC50). The procedure: The data is analyzed by means of a 1-factorial ANOVA (comparison of treatment groups versus vehicle group). The significance level is set at p<0.05. All the groups have a size of N=10. The test is also described in Hogg, S. (1996) “A review of the validity and variability of the elevated plus-maze as an animal model of anxiety,” Pharmacol. Biochem. Behav. 54, 21-30, and in Rodgers, R. J., Cole, J. C. (1994) “The elevated plus-maze: pharmacology, methodology and ethology,” in Cooper, S. J., Hendrie, C. A. (eds.) Ethology and Psychopharmacology. Wiley & Sons; pp. 9-44. 5. Description of the Functional Ca^2+ Influx Assay […]
After recording the fluorescence base line for 10 sec., 50 μl test substance solution (various test substance concentrations in HBSS buffer with 1% DMSO and 0.02% Tween 20, Sigma) is added and the fluorescence signal is measured for 6 min. 50 μl DHPG solution ((S)-3,5-dihydroxyphenylglycine, Tocris Biotrend Chemikalien GmbH, Cologne, Germany, final DHPG concentration: 10 μM) is subsequently added and the inflow of Ca^2+ is simultaneously measured for 60 sec. […] The data is analysed with Microsoft Excel and GraphPad Prism. The dose-effect curves are calculated with non-linear regression and IC50 values determined. Each data point is determined 3 times and IC50 values are averaged from a minimum of 2 independent measurements. […]

T1 sequence (I3LUI7 19-1212): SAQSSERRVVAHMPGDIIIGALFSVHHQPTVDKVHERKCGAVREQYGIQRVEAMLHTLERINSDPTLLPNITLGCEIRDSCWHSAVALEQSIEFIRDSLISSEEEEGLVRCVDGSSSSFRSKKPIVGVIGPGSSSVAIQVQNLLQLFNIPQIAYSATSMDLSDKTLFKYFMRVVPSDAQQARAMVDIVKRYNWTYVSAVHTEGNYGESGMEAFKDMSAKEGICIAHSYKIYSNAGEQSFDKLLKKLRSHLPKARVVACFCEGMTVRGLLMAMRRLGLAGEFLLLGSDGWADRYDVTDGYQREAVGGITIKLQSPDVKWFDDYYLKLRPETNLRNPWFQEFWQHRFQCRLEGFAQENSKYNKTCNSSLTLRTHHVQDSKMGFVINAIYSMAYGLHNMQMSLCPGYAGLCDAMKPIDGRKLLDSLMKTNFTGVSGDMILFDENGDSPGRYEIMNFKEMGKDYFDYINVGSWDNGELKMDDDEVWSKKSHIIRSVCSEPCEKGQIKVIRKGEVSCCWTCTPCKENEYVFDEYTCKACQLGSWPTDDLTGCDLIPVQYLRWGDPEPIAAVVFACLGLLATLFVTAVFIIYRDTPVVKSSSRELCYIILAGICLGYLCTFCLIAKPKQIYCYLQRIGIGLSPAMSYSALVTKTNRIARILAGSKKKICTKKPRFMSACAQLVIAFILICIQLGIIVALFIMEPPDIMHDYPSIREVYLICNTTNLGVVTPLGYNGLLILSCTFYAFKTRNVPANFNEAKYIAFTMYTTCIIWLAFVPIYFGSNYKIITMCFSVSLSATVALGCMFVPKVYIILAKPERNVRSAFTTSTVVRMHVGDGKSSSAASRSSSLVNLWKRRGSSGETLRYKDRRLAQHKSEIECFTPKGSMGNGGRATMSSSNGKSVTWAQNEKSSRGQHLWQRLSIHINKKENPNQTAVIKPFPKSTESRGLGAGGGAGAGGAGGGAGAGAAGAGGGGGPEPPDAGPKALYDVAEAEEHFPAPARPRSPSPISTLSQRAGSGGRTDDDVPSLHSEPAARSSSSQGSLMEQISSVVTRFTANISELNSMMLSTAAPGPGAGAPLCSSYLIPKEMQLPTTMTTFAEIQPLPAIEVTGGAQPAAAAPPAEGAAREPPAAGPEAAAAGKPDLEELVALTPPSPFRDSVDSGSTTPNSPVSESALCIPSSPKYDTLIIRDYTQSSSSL
T2 sequence (P41594 21-1212): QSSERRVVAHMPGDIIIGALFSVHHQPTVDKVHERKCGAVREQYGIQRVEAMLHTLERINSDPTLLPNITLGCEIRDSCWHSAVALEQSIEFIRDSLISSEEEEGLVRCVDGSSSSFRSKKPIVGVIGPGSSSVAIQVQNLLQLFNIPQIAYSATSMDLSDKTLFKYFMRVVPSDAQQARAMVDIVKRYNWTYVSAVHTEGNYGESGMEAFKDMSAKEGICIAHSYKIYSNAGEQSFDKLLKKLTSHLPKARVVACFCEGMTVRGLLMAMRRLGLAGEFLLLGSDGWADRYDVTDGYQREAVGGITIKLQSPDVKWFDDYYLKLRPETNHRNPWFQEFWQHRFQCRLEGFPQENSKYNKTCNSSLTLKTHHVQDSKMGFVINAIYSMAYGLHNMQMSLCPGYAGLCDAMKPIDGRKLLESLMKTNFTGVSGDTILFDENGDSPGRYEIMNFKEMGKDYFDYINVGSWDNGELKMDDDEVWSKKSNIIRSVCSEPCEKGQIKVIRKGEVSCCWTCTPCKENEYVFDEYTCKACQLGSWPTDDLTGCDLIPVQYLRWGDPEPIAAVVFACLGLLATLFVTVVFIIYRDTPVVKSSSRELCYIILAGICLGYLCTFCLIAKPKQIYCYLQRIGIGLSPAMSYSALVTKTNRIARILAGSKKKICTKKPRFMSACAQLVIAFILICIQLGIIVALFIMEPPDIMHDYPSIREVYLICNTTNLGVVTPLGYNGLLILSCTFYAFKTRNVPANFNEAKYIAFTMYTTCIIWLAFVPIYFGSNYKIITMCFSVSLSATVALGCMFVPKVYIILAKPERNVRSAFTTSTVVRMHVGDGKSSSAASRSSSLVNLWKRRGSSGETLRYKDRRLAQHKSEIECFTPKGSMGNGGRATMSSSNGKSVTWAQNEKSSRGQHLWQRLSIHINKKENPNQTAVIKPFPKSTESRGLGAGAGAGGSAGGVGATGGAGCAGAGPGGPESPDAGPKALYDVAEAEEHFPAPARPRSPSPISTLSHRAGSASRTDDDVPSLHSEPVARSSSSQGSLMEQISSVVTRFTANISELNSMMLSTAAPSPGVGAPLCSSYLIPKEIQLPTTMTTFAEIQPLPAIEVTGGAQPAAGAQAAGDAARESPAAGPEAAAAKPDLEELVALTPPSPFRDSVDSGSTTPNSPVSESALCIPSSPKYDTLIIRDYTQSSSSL

With `CC(C)(C)Nc1c(-c2ccc(C#Cc3ccccn3)s2)nc2sccn12` [Example 2, N-tert-butyl-6-(5-(pyridine-2-ylethynyl)thiophene-2-yl)imidazo[2,1-b]thiazole-5-amine], on mGluR5 receptor (pig), the concentration for half-maximal inhibition (IC50) worked out at 6.3 nM. For the same compound, the 50% effect level in the test on rat (iv, observed 21 to 27 min after formalin injection) (ED50) was put at a dose of 0.47 mg/kg. The “Formalin test (rat) p.o. Reduction in the nociceptive behavior over controls at 10 mg/kg” value with rat worked out at 66%.

Turning to `Cc1cn2c(NC(C)(C)C)c(-c3ccc(C#Cc4ccccn4)s3)nc2s1` [Example 4, N-tert-butyl-2-methyl-6-(5-(pyridine-2-ylethynyl)thiophene-2-yl)imidazo[2,1-b]thiazole-5-amine], on mGluR5 receptor (pig), the IC50 amounted to 5.5 nM. For the same compound, in the test on rat, the “Formalin test (rat) p.o. Reduction in the nociceptive behavior over controls at 10 mg/kg” value came out at 62%. Also, the Ki at mGluR5 receptor (human) was determined as 0.31 nM.

Regarding `CC(C)(C)Nc1c(-c2ccc(C#Cc3ccncc3)s2)nc2sccn12` [Example 7, N-tert-butyl-6-(5-(pyridine-4-ylethinyl)thiophene-2-yl)imidazo[2,1-b]thiazole-5-amine], at mGluR5 receptor (pig), the IC50 was 3 nM. This compound also had a Ki at mGluR5 receptor (human) of 0.26 nM.

For `CC(C)(C)Nc1c(-c2ccc(C#Cc3cccc(O)c3)s2)nc2sccn12` [Example 20, 3-((5-(5-(tert-butylamino)imidazo[2,1-b]thiazole-6-yl)thiophene-2-yl)ethynyl)phenol], at mGluR5 receptor (pig), the IC50 came to 170 nM.

Take `CC(C)(C)Nc1c(-c2ccc(C#Cc3cccc(C#N)c3)s2)nc2sccn12` [Example 21, 3-((5-(5-(tert-butylamino)imidazo[2,1-b]thiazole-6-yl)thiophene-2-yl)ethynyl)benzonitrile]: at mGluR5 receptor (pig), the IC50 was 26 nM.

`CCNc1c(-c2ccc(C#Cc3ccccc3)nc2)nc2sccn12` [Example 22, N-ethyl-6-(6-(phenylethynyl)pyridine-3-yl)imidazo[2,1-b]thiazole-5-amine] showed an inhibition at 10 µM at mGluR5 receptor (pig) (test compound 10 μM, inhibition of [3H]-MPEP binding, pig brain homogenate) of 82%.

In the case of `Cc1cccnc1C#Cc1ccc(-c2nc3sccn3c2NC(C)(C)C)s1` [Example 23, N-tert-butyl-6-(5-((3-methylpyridine-2-yl)ethynyl)thiophene-2-yl)imidazo[2,1-b]thiazole-5-amine], the half-maximal inhibitory concentration (IC50) on mGluR5 receptor (pig) turned out to be 230 nM.

The term IC50 denotes the concentration that inhibits the measured activity by half. For orientation: ED50 means the midpoint of the dose-response relation. Low values mean an effect at a small dose, high ones a need for a large dose. In general, Ki refers to the dissociation constant of the complex between target and ligand, obtained from inhibition or displacement. Low readings indicate higher affinity, high ones lower affinity. What is called inhibition is the change of the read-out against control, counted positive when it falls. A higher inhibition goes with strong suppression.
